Assay results taken from patent publication US9567329B2, “High penetration prodrug compositions of 1H-imidazo[4,5-c]quinolin-4-amines and 1H-imidazo[4,5-c]quinolin-4-amine-related compounds and uses thereof” (Techfields Pharma Co., Ltd, priority 2007, dated 2017).

How the values were obtained:
[1] = system: Human colon cancer cells (LS174J); experiment: Antitumor activity, colon cancer xenograft, topical treatment from day 1; details: 50 μl of 3% topically twice per day from day 1; after 28 days
From the text: Human colon cancer cells (LS174J, 4-5 mm^3 of tumor tissue was used in each mouse) were subcutaneously xenografted into nude mice (BALB).

[2] = system: herpes simplex virus Type II; experiment: Anti-Herpes activity, treated for 5 days, first treatment 5 days after HSV infection; type: in vivo; details: guinea pigs
Method: (§1) The evaluation of anti-Herpes activity of these prodrugs was carried out using the method described by Kern, et al. [Antimicrob. Agents Chemother. 14, 817, (1978)].
(§2) In the third experiment, female guinea pigs (n=10) were anesthetized. The guinea pigs were then infected with herpes simplex virus (type I or Type II, about 10^5 plaque forming units were used) intravaginally using a cotton swab. […] External lesions were scored daily for ten days using the following scale: 0, no lesion; 1, redness and swelling; 2, a few small vesicles; 3, several large vesicles; 4, large ulcers and necrosis; and 5, paralysis. The percent Lesion Inhibition was calculated as follows: 100−[(Sum of maximum lesion scores of treated group divided by the Sum of the scores of infected control)×100] (Table 7).

[3] = system: herpes simplex virus Type I; experiment: as above; type: in vivo; details: guinea pigs
Method: as §1, §2

[4] = system: herpes simplex virus Type II; experiment: Anti-Herpes activity, treated for 5 days, first treatment just after HSV infection; type: in vivo; details: guinea pigs
Method: as §1
(§3) In the second experiment, female guinea pigs (n=10) were anesthetized. Herpes simplex virus (Type I or Type II, about 10^5 plaque forming units were used) was applied intravaginally to the guinea pigs using a cotton swab. […] Virus replication was monitored by determining the amount of virus recovered with vaginal swabs taken on day 7 after infection. External lesions were scored daily for ten days using the following scale: 0, no lesion; 1, redness and swelling; 2, a few small vesicles; 3, several large vesicles; 4, large ulcers and necrosis; and 5, paralysis. The percent Lesion Inhibition was calculated as follows: 100−[(Sum of maximum lesion scores of treated group divided by the Sum of the scores of infected control)×100] (Table 6).

[5] = system: herpes simplex virus Type I; experiment: as above; type: in vivo; details: guinea pigs
Method: as §1, §3

interferon production [6] = experiment: Interferon inducing activity in guinea pigs (serum protection of fibroblasts from mengovirus); type: in vivo; details: serum 18 hours after treatment
Method: Without being bound by any mechanism, the ability to induce interferon production of the pro-drugs of the invention was evaluated in guinea pigs (n=10). Untreated guinea pigs provided controls.
Each test drug was administered to real back skin of a guinea pig at a specific dose of about 0.5-4.5 mg/kg respectively.
Each treated and control guinea pig was bled 18 hours after drug treatment and its serum was assayed for interferon activity. The serum was diluted and incubated with guinea pig fibroblast cells at 37° C. overnight in 96 well microtiter plates. The incubated cells were then challenged with an inoculum of mengovirus that was sufficient to kill untreated cells in two days. Two days after such challenge, the cells were examined both microscopically and after staining with crystal violet to determine whether the cells remained intact.
Table 4 contains the results of the study with activity/ml indicating the highest dilute on of serum that protected cells from virus challenge. Untreated guinea pigs provided controls.

[7] = In vitro penetration rate across human skin in modified Franz cells; type: in vitro ADME; details: for In vitro Penetration Rate of HPPs (apparent flux): 3% solution in ethanol/pH 7.4 phosphate buffer (0.2 M) 70/30
Method: Penetration rates of HPPs and their parent drugs through human skin were measured in vitro by modified Franz cells. A Franz cell had two chambers, the top sample chamber and the bottom receiving chamber. The human skin tissue (360-400 μm thick) that separated the top and the receiving chambers was isolated from the anterior or posterior thigh areas.
A compound tested (0.5 mL, 3% in a mixture of ethanol and phosphate buffer (0.2M, pH 7.4) (v/v, 70/30)) was added to the sample chamber of a Franz cell. The receiving chamber contains 2 ml of 2% bovine serum albumin in saline which was stirred at 600 rpm. The amount of the tested compound penetrating the skin was determined by high-performance liquid chromatography (HPLC) method.
The lowest detectable apparent flux values in this method was 1 μg/cm^2/h.

interferon production [8] = experiment: Interferon inducing activity in guinea pigs (serum protection of fibroblasts from mengovirus); type: in vivo; details: serum 18 hours after treatment; remark: listed apart in the source
[9] = system: herpes simplex virus Type II; experiment: Anti-Herpes activity, treated for 3 days before HSV infection; type: in vivo; details: guinea pigs
Method: (§4) The evaluation of anti-Herpes activity of these prodrugs was carried out using the method described by Kern, et al. [Antimicrob. Agents Chemother. 14, 817, (1978)]. In each experiment, female guinea pigs (n=10) were anesthetized. […] Virus replication was monitored by determining the amount of virus recovered with vaginal swabs taken on day 7 after infection. […] The percent Lesion Inhibition was calculated as follows: 100-[(Sum of maximum lesion scores of treated group divided by the Sum of the scores of infected control)×100] (Table 5).

[10] = system: herpes simplex virus Type I; experiment: as above; type: in vivo; details: guinea pigs
Method: as §4

[11] = system: Human breast cancer cells (BCAP-37)
From the text: Human breast cancer cells (BCAP-37, 3-4 mm^3 of tumor tissue was used in each mouse) were subcutaneously xenografted into nude mice (BALB).

[12] = system: Human breast cancer cells (BCAP-37); experiment: Antitumor activity, breast cancer xenograft, topical treatment from day 1; details: 50 μl of 3% topically once per day from day 1; after 28 days
From the text: Human breast cancer cells (BCAP-37, 4-5 mm^3 of tumor tissue was used in each mouse) were subcutaneous xenografted into nude mice (BALB).

[13] = Irritative effect or discomfort on skin of nude mice after topical application; type: in vivo; details: 0.1 ml of 3% in pH 7.4 phosphate buffer, back of nude mice, twice per day, 1 week
Method: Irritative effect or discomfort in the skin of mice of HPPs of 1H-imidazo[4,5-c]quinolin-4-amines or 1H-imidazo[4,5-c]quinolin-4-amine-related compounds was evaluated during a period of 1 week after the topical application of 0.1 ml of 3% of the respective test drug in pH 7.4 phosphate buffer (0.2 M) to the back of nude mice twice per day.

[14] = Conversion of HPPs to parent drugs in human plasma (half life); type: in vitro ADME; details: 37° C.
Method: HPPs of 1H-imidazo[4,5-c]quinolin-4-amines or 1H-imidazo[4,5-c]quinolin-4-amine-related compounds converted to the parent 1H-imidazo[4,5-c]quinolin-4-amines or 1H-imidazo[4,5-c]quinolin-4-amine-related compounds quickly in good yield in human plasma.
A HPP of 1H-imidazo[4,5-c]quinolin-4-amines or 1H-imidazo[4,5-c]quinolin-4-amine-related compound (0.05 mg) was dissolved in 0.1 ml of 0.2M pH 7.4 phosphate buffer. 1 ml of human plasma, preheated to 37° C., was added into the mixture. The mixture was kept in a water bath at 37° C., and at every 10 min intervals 0.2 ml of samples were withdrawn and added to 0.4 ml of methanol to precipitate the plasma protein. The samples were centrifuged for 5 min and analyzed by HPLC.

[15] = 0.5 mg/kg once per day for 5 days
[16] = 1.5 mg/kg once per day for 5 days
[17] = 4.5 mg/kg once per day for 5 days
[18] = 0.5 mg/kg once per day for 3 days before HSV infection
[19] = 1.5 mg/kg once per day for 3 days before HSV infection
[20] = 4.5 mg/kg once per day for 3 days before HSV infection
[21] = at day 42, treatment from day 21 (tumors 13±2 mm×12±3 mm), 50 μl of 3% topically once per day

CC(C)Cn1cnc2c(N)nc3ccccc3c21.Cl [1-isobutyl-1H-imidazo[4,5-c]quinolin-4-amine hydrochloride, reference compound]
Tumor size, Human colon cancer, first dimension [1]: 17 ± 2 mm × | Tumor size, Human colon cancer, second dimension [1]: 15 ± 2 mm | tumor incidence, human colon cancer [1]: 100% | % Lesion inhibition of the parent drug, intravaginal, Herpes type II [2, 15]: 2% | % Lesion inhibition of the parent drug, transdermal, Herpes type II [2, 15]: 2% | % Lesion inhibition of the parent drug, intravaginal, Herpes type II [2, 16]: 2% | % Lesion inhibition of the parent drug, transdermal, Herpes type II [2, 16]: 2% | % Lesion inhibition of the parent drug, intravaginal, Herpes type II [2, 17]: 44% | % Lesion inhibition of the parent drug, transdermal, Herpes type II [2, 17]: 24% | % Lesion inhibition of the parent drug, intravaginal, Herpes type I [3, 15]: 2% | % Lesion inhibition of the parent drug, transdermal, Herpes type I [3, 15]: 2% | % Lesion inhibition of the parent drug, intravaginal, Herpes type I [3, 16]: 2% | % Lesion inhibition of the parent drug, transdermal, Herpes type I [3, 16]: 2% | % Lesion inhibition of the parent drug, intravaginal, Herpes type I [3, 17]: 37% | % Lesion inhibition of the parent drug, transdermal, Herpes type I [3, 17]: 22% | % Lesion inhibition of the parent drug, intravaginal, Herpes type II [4, 15]: 2% | % Lesion inhibition of the parent drug, transdermal, Herpes type II [4, 15]: 2% | % Lesion inhibition of the parent drug, intravaginal, Herpes type II [4, 16]: 21% | % Lesion inhibition of the parent drug, transdermal, Herpes type II [4, 16]: 6% | % Lesion inhibition of the parent drug, intravaginal, Herpes type II [4, 17]: 82% | % Lesion inhibition of the parent drug, transdermal, Herpes type II [4, 17]: 54% | % Lesion inhibition of the parent drug, intravaginal, Herpes type I [5, 15]: 2% | % Lesion inhibition of the parent drug, transdermal, Herpes type I [5, 15]: 2% | % Lesion inhibition of the parent drug, intravaginal, Herpes type I [5, 16]: 17% | % Lesion inhibition of the parent drug, transdermal, Herpes type I [5, 16]: 7% | % Lesion inhibition of the parent drug, intravaginal, Herpes type I [5, 17]: 78% | % Lesion inhibition of the parent drug, transdermal, Herpes type I [5, 17]: 52% | Interferon level of the parent drug, transdermal (interferon production [6]; 0.5 mg/kg once): 198 activity/ml | Interferon level of the parent drug, transdermal (interferon production [6]; 1.5 mg/kg once): 776 activity/ml | Interferon level of the parent drug, transdermal (interferon production [6]; 4.5 mg/kg once): 2,785 activity/ml | In vitro Penetration Rate of Parent compounds (apparent flux) ([7]; 3% suspension in ethanol/pH 7.4 phosphate buffer (0.2 M) 70/30): 0.005 mg/cm^2/h | Interferon level of the parent drug, intravaginal (interferon production [8]; 0.5 mg/kg once): 385 activity/ml | Interferon level of the parent drug, intravaginal (interferon production [8]; 1.5 mg/kg once): 2,982 activity/ml | Interferon level of the parent drug, intravaginal (interferon production [8]; 4.5 mg/kg once): 28,982 activity/ml | % Lesion inhibition of the parent drug, intravaginal, Herpes type II [9, 18]: 5% | % Lesion inhibition of the parent drug, transdermal, Herpes type II [9, 18]: 2% | % Lesion inhibition of the parent drug, intravaginal, Herpes type II [9, 19]: 28% | % Lesion inhibition of the parent drug, transdermal, Herpes type II [9, 19]: 2% | % Lesion inhibition of the parent drug, intravaginal, Herpes type II [9, 20]: 87% | % Lesion inhibition of the parent drug, transdermal, Herpes type II [9, 20]: 48% | % Lesion inhibition of the parent drug, intravaginal, Herpes type I [10, 18]: 4% | % Lesion inhibition of the parent drug, transdermal, Herpes type I [10, 18]: 2% | % Lesion inhibition of the parent drug, intravaginal, Herpes type I [10, 19]: 23% | % Lesion inhibition of the parent drug, transdermal, Herpes type I [10, 19]: 3% | % Lesion inhibition of the parent drug, intravaginal, Herpes type I [10, 20]: 85% | % Lesion inhibition of the parent drug, transdermal, Herpes type I [10, 20]: 45% | tumor size, first dimension [11, 21]: 17±2 mm | tumor size, second dimension [11, 21]: 15±2 mm | death of mice ([11]; up to day 70, 50 μl of 3% topically once per day from day 21): all mice died by day 70 | Tumor size, Human breast cancer, first dimension [12]: 12 ± 2 mm × | Tumor size, Human breast cancer, second dimension [12]: 11 ± 2 mm | tumor incidence, human breast cancer [12]: 100%

CCCCn1cnc2c(NC(=O)CNC)nc3ccccc3c21.Cl [sarcosine 1-butyl-1H-imidazo[4,5-c]quinolin-4-amide hydrochloride]
signs of irritative effect or discomfort in the skin [13]: None of any signs of irritative effect or discomfort was observed | In vitro Penetration Rate of HPPs (apparent flux) [7]: 0.13 mg/cm^2/h | Half life of HPPs in plasma [14]: 25 ± 2 min

sarcosine 1-benzyl-1H-imidazo[4,5-c]quinolin-4-amide hydrochloride
signs of irritative effect or discomfort in the skin [13]: None of any signs of irritative effect or discomfort was observed | In vitro Penetration Rate of HPPs (apparent flux) [7]: 0.16 mg/cm^2/h | Half life of HPPs in plasma [14]: 29 ± 1 min
